Key:
Format in all cases: in vivo, Sprague-Dawley rats
[1] = tested on: thrombin/antithrombin III complex (TAT); test: Thrombin/antithrombin III complex (TAT) in plasma after endotoxin
Experimental: (§1) The body temperature was maintained at. 38° C. throughout the experiment by external heating.
[…]. […] Sham operated animals received saline instead of endotoxin.

[2] = tested on: rats given endotoxin; test: 125I-fibrinogen in the blood after endotoxin (experimental endotoxaemia); settings: high dose heparin (group VIII); melagatran groups IV-VI; melagatran with dexamethasone groups XVII-XX
Experimental: as §1
(§2) Sham operated animals received saline instead of endotoxin.
Adjustment for multiplicity was done using Scheffe. […] Corrections for multiple comparisons were made according to Bonferroni.

[3] = Plasma concentration of melagatran (LC-MS)
Excerpt: as §2

C[C@@H]1C[C@H]2[C@@H]3CCC4=CC(=O)C=C[C@]4(C)[C@@]3(F)[C@@H](O)C[C@]2(C)[C@@]1(O)C(=O)CO [dexamethasone, Dexamethasone]
TAT (thrombin generation) ([1]; dexamethasone groups (discussion)): below 8 μg/l

N=C(N)c1ccc(CNC(=O)[C@@H]2CCN2C(=O)[C@H](NCC(=O)O)C2CCCCC2)cc1 [melagatran, HOOC—CH2—(R)Cgl-Aze-Pab-H]
fibrinogen consumption [2]: completely prevented
mean plasma concentration of melagatran during the 5 h experiment ([3]; group IV, Mela low 0.13 μmol/kg bolus + 0.32 μmol/kg/h iv): 0.78 ± 0.08 µmol/L
plasma concentration of melagatran combined with heparin ([3]; group IX, Hep low + Mela low): 720 ± 90 nM
mean plasma concentration of melagatran during the 5 h experiment ([3]; group V, Mela med 0.4 μmol/kg bolus + 1.0 μmol/kg/h iv): 2.83+0.45 μmol/l
mean plasma concentration of melagatran during the 5 h experiment ([3]; group VI, Mela high 1.3 μmol/kg bolus + 3.2 μmol/kg/h iv): 6.88 ± 0.42 µmol/L
plasma concentration of melagatran combined with heparin ([3]; group X, Hep low + Mela med): 1970 ± 160 nM
plasma concentration of melagatran in combination with dexamethasone ([3]; high dose group, first value (group XVIII, Dexa low 1 mg/kg + melagatran 0.4 μmol/kg + 1.0 μmol/kg/h)): 1490 ± 130 nM
plasma concentration of melagatran in combination with dexamethasone ([3]; high dose group, second value (group XX, Dexa high 10 mg/kg + melagatran 0.4 μmol/kg + 1.0 μmol/kg/h)): 1280 ± 100 nM
plasma concentration of melagatran in combination with dexamethasone ([3]; low dose group, first value (group XVII, Dexa low 1 mg/kg + melagatran 0.13 μmol/kg + 0.32 μmol/kg/h)): 480 ± 10 nM
plasma concentration of melagatran in combination with dexamethasone ([3]; low dose group, second value (group XIX, Dexa high 10 mg/kg + melagatran 0.13 μmol/kg + 0.32 μmol/kg/h)): 460 ± 20 nM

NC[C@H]1CC[C@H](C(=O)O)CC1 [tranexamic acid]
TAT ([1]; measured in some animals, group III, groups XV-XX): 55.5 ± 6.6 µg/L

— patent publication US7449446B2, “Combination product comprising melagatran and dexamethasone” (AstraZeneca AB, priority 2001, dated 2008)
